From the NIST ThermoML archive (doi:10.1016/j.jct.2012.05.020)
Numbers after ± are expanded uncertainties.

Conditions: 101.33 kPa, Liquid, Vibrating tube method

| SMILES | mass density (293.16 K) | mass density (298.15 K) | mass density (303.15 K) | mass density (308.15 K) | mass density (313.15 K) | mass density (318.15 K) | mass density (323.18 K) | mass density (298.14 K) | mass density (303.14 K) | mass density (308.14 K) | mass density (313.14 K) | mass density (318.14 K) | mass density (323.14 K) | mass density (328.14 K) | mass density (333.14 K) | mass density (338.14 K) | mass density (343.14 K) | mass density (293.15 K) |
| --- | --- | --- | --- | --- | --- | --- | --- | --- | --- | --- | --- | --- | --- | --- | --- | --- | --- | --- |
| CCOS(=O)(=O)[O-].CCn1cc[n+](C)c1 [1-ethyl-3-methylimidazolium ethyl sulfate] | 1240.25 ± 0.16 kg/m3 | 1236.81 ± 0.16 kg/m3 | 1233.39 ± 0.16 kg/m3 | 1229.98 ± 0.15 kg/m3 | 1226.59 ± 0.15 kg/m3 | 1223.22 ± 0.15 kg/m3 | 1219.84 ± 0.15 kg/m3 | – | – | – | – | – | – | – | – | – | – | – |
| CCCCCCCC[N+](C)(CCCCCCCC)CCCCCCCC.O=[N+]([O-])[O-] [N-methyl-N,N,N-trioctylammonium nitrate] | 915.29 ± 2.9 kg/m3 | – | – | – | – | – | – | 912.33 ± 2.9 kg/m3 | 909.37 ± 2.9 kg/m3 | 906.41 ± 2.8 kg/m3 | 903.43 ± 2.8 kg/m3 | 900.5 ± 2.8 kg/m3 | 897.58 ± 2.8 kg/m3 | 894.67 ± 2.8 kg/m3 | 891.76 ± 2.8 kg/m3 | 888.84 ± 2.7 kg/m3 | 885.93 ± 2.7 kg/m3 | – |
| CCCCCCCC[N+](C)(CCCCCCCC)CCCCCCCC.[Cl-] [N-methyl-N,N-dioctyl-1-octanaminium chloride] | – | – | – | – | – | – | – | 886.45 ± 2.7 kg/m3 | 883.43 ± 2.7 kg/m3 | 880.41 ± 2.7 kg/m3 | 877.37 ± 2.7 kg/m3 | 874.35 ± 2.6 kg/m3 | 871.36 ± 2.6 kg/m3 | 868.37 ± 2.6 kg/m3 | 865.37 ± 2.6 kg/m3 | 862.37 ± 2.6 kg/m3 | 859.36 ± 2.6 kg/m3 | 889.47 ± 2.7 kg/m3 |
